According to US20080311126A1, “Antisense Oligonucleotides Directed to Ribonucleotide Reducatase R2 and Uses Thereof in Combination Therapies for the Treatment of Cancer” (Genesense Technologies, Inc, priority 2004, published 2008):
Oligonucleotides are written 5' to 3', each unit as a sugar letter and its base; * is a phosphorothioate linkage, no mark a phosphodiester; rarer units and linkages stand in square brackets, end groups in braces. Plain capitals give the bases only. d = 2'-deoxy (DNA)

Legend:
Type in all cases: cell-based, human
Hela S3 cells = experiment: Relative colony forming efficiency, lipofectin +/- oligonucleotide 4 hours; conditions: Hela S3 cervix carcinoma cells; averages of 2-8 determinations
Protocol: Colony forming efficiency was determined using standard protocols. Briefly, the cells were cultured for 24 hours at 37° C. in growth medium with 10% fetal bovine serum. The cells were washed in 5 ml phosphate buffered saline, pH 7.2, once prior to lipofectin +/−oligonucleotide treatment.
The test oligonucleotides were added to cell cultures in the presence of 2.5 μg of DOTMA/DOPE (Lipofectin; Life Technologies, Inc.) for four hours. The oligonucleotide was tested at 0.2 μM unless otherwise indicated. Controls were the cultures treated with lipofectin but without the oligonucleotide. After 4 hours the medium containing the oligonucleotide was removed and washed with 5 ml of growth medium. The cells were then cultured in growth medium containing 10% fetal bovine serum for seven to ten days. Surviving cells were visualized by methylene blue staining, and colonies were scored. In some experiments cell aliquots were removed from the culture and viability was determined using the trypan blue exclusion test. Results were analyzed as percent of surviving cells compared to control cells.
AS-II-336-20 was tested for the ability to inhibit the proliferation of human tumour cells (Hela). Hela S3 cells (American Type Culture Collection, Rockville, Md., ATCC), and a Hela cell line (Hela 1 mM) previously selected for resistance to the antitumour agent, hydroxyurea, were tested (see results in Table 11). Two experiments were undertaken with Hela S3 cells. […] The same experiment was repeated with the Hela 1 mM cell line and with varying concentrations of the antisense construct AS-II-336-20 (see results in Table 11) with similar results, […] was an effective concentration for inhibiting colony formation.
To test the antisense effects of many of these sequences as phosphorthioate deoxyribonucleotides, they were examined in relative colony forming experiments conducted as described in Example 16 with a series of human tumour cell lines. The results (shown as % inhibition of colony forming ability) obtained with cancer cells derived from the bladder, breast, lung, colon, pancreas, prostate, liver and cervix, are shown in Table 13. The specific cell lines employed are as follows:
T24=bladder cell carcinoma HCT116=colon cell carcinoma A549=lung cell carcinoma MDA-MB-231=breast cell adenocarcinoma […]=pancreatic cell carcinoma PC-3=prostrate cell adenocarcinoma HepG2=hepatocellular carcinoma HeLaS3=cells isolated from a carcinoma of the cervix T-47D=breast ductal carcinoma H596=lung adenosquamous carcinoma cells Colo320=colon cell adenocarcinoma

A549 lung cell carcinoma = experiment: Relative colony forming efficiency (Example 17, Table 13); conditions: averages of 2-8 determinations
How it was run: (§1)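 Phosphorothioate antisense oligonucleotides were delivered to tumour cell cultures with 2.5 μg DOTMA/DOPE (Lipofectin) over four hours, at 0.2 μM unless otherwise indicated. Surviving colonies were stained with methylene blue and scored. Values are % inhibition of colony formation relative to lipofectin-only controls.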

[1] = tested on: HCT116 colon cell carcinoma; experiment: as above; conditions: averages of 2-8 determinations
How it was run: as §1

[2] = tested on: HepG2 hepatocellular carcinoma; experiment: as above; conditions: averages of 2-8 determinations
How it was run: as §1

[3] = tested on: MDA PaCa-2 pancreatic cell carcinoma; experiment: as above; conditions: MIA PaCa-2 pancreatic cell carcinoma; averages of 2-8 determinations
How it was run: as §1

[4] = tested on: MDA-MB-231 breast cell adenocarcinoma; experiment: as above; conditions: averages of 2-8 determinations
How it was run: as §1

[5] = tested on: T24 bladder cell carcinoma; experiment: as above; conditions: averages of 2-8 determinations
How it was run: as §1

[6] = tested on: PC-3 prostrate cell adenocarcinoma; experiment: as above; conditions: averages of 2-8 determinations
How it was run: as §1

[7] = tested on: T-47D breast ductal carcinoma; experiment: as above; conditions: averages of 2-8 determinations
How it was run: as §1

Sequence | Reduced relative colony forming efficiency, Hela S3 (% inhibition of colony forming ability) (Hela S3 cells) | Reduced relative colony forming efficiency, A549 (% inhibition of colony forming ability) (A549 lung cell carcinoma) | Reduced relative colony forming efficiency, HCT116 (% inhibition of colony forming ability) [1] | Reduced relative colony forming efficiency, HepG2 (% inhibition of colony forming ability) [2] | Reduced relative colony forming efficiency, MIA PaCa-2 (% inhibition of colony forming ability) [3] | Reduced relative colony forming efficiency, MDA-MB-231 (% inhibition of colony forming ability) [4] | Reduced relative colony forming efficiency, T24 (% inhibition of colony forming ability) [5] | Reduced relative colony forming efficiency, PC-3 (% inhibition of colony forming ability) [6] | Reduced relative colony forming efficiency, T-47D (% inhibition of colony forming ability) [7]
TCCTTTATCCCACAACACTC (antisense dT*dC*dC*dT*dT*dT*dA*dT*dC*dC*dC*dA*dC*dA*dA*dC*dA*dC*dT*dC) [AS-II-2067-20] | 24.88% | 64.71% | 47.16% | 90.36% | 41.08% | 49.68% | 49.6% | – | –
TTCTCTTACTCTCTCCTCCG (antisense dT*dT*dC*dT*dC*dT*dT*dA*dC*dT*dC*dT*dC*dT*dC*dC*dT*dC*dC*dG) [AS-II-1048-20] | 39.19% | 65.67% | 42.63% | 77.56% | 33.4% | 66.88% | 40.32% | 84.38% | –
TATCTCTCCTCGGGTTTCAG (antisense dT*dA*dT*dC*dT*dC*dT*dC*dC*dT*dC*dG*dG*dG*dT*dT*dT*dC*dA*dG) [AS-II-549-20] | 27.8% | 30.57% | 47.83% | 84.04% | 17.01% | 40.13% | 45.46% | – | –
GCTCCCACATATGAAAACTC (antisense dG*dC*dT*dC*dC*dC*dA*dC*dA*dT*dA*dT*dG*dA*dA*dA*dA*dC*dT*dC) [AS-II-2229A-20] | 63.15% | 69.72% | 93.01% | 73.26% | 33.61% | – | 50.34% | 89.58% | 58.82%
TCTGCCTTCTTCTTGACACA (antisense dT*dC*dT*dG*dC*dC*dT*dT*dC*dT*dT*dC*dT*dT*dG*dA*dC*dA*dC*dA) [AS-II-798-20] | 56.42% | 70.49% | 64.46% | 89.46% | 34.65% | 83.92% | 84.72% | 83.21% | –
CTGCTTTAGTTTTCGGCTCC (antisense dC*dT*dG*dC*dT*dT*dT*dA*dG*dT*dT*dT*dT*dC*dG*dG*dC*dT*dC*dC) [AS-II-362-20] | 45.69% | 61.81% | 62.81% | 95.78% | 34.2% | 85.83% | 89.63% | 75.78% | –
ACCCCTCACTCCAGCAGCCT (antisense dA*dC*dC*dC*dC*dT*dC*dA*dC*dT*dC*dC*dA*dG*dC*dA*dG*dC*dC*dT) [AS-II-110-20] | 53.98% | 89.38% | 71.69% | 97.14% | 47.51% | 90.92% | 87.78% | 92.06% | –
GTCTCTCCTCCGATGGTTTG [AS-II-1040-20] | 71.87% | 85.82% | 70.08% | 77.78% | 43.52% | – | 59.49% | 40.08% | 64.76%
TCAGAGGGGGCAGAGAATCC (antisense dT*dC*dA*dG*dA*dG*dG*dG*dG*dG*dC*dA*dG*dA*dG*dA*dA*dT*dC*dC) [AS-II-2044-20] | 24.55% | 25.55% | 49.34% | 62.35% | 24.48% | 19.11% | 53.63% | 74.48% | –
CGGCGGCGTGTTCTCCTTGT (antisense dC*dG*dG*dC*dG*dG*dC*dG*dT*dG*dT*dT*dC*dT*dC*dC*dT*dT*dG*dT) [AS-II-280-20] | 41.79% | 61.81% | 69.42% | 97.14% | 53.94% | 79.14% | 90.56% | 77.51% | –
CCTCCTCGGCGGTCCAAAAG (antisense dC*dC*dT*dC*dC*dT*dC*dG*dG*dC*dG*dG*dT*dC*dC*dA*dA*dA*dA*dG) [AS-II-494-20] | 43.62% | 33.85% | 50.28% | 93.37% | 25.31% | 54.78% | 54.23% | 30.6% | –
